Data set [1] has as its system mouse sperm. The data set is described as follows: Ex vivo sperm tyrosine phosphorylation (Western blot) from injected mice. The data set is classed as in vivo. The settings on record: 50 mg/kg i.p., one hour post injection. The protocol: After 15 minutes swim-out at 37° C., sperm from two caudae were combined and counted using a hematocytometer. For capacitation, sperm were incubated for 90 minutes in TYH containing 3 mg/ml BSA and 25 mM NaHCO3 in a 37° C. incubator. To control for the consequences of dilution during isolation of epididyrnal mouse sperm for ex vivo assays, the ability for bicarbonate to induce a prototypical pattern of tyrosine phosphorylation (pY) which is a widely used molecular hallmark of capacitation was assessed [Reference 80]. Bicarbonate-induced pY is known to be sAC dependent in vitro [References 37, 46, 62]. For experiments studying sperm from injected mice, ‘swim out’ was performed in 200 μl TYH, which corresponded to a 1:10 dilution from epididymis ([…] in 200 μl buffer). Capacitation induced changes were assessed by adding 50 μl of ‘swim out’ sperm to increasing volumes of non-capacitating or capacitating TYH buffer.
Mouse sperm from vehicle or inhibitor-injected mice were isolated 1 hour from male mice injected (i.p.) with 150 μl of solution containing sAC inhibitor or vehicle. Sperm were diluted 1:20 to 1:1000 in capacitating TYH media. As control, sperm from vehicle-injected mice were diluted 1:1000 in non-capacitating and capacitating TYH buffer. The samples were incubated for 90 minutes, washed with 1 ml PBS and sedimented by centrifugation at 2,000×g for 3 minutes. The sedimented sperm were resuspended in 15 μl 2× Laemmli sample buffer [Reference 83], heated for 5 minutes at 95° C., supplemented with 8 μl β-mercaptoethanol and heated again for 5 minutes at 95° C. For Western blot analysis, proteins were transferred onto PVDF membranes (Thermo Scientific), probed with anti-phosphotyrosine antibodies, and analyzed using a cherniluminescence detection system. Image lab (Bio-Rad) was used for densitometric analysis of Western blots.
(In general: A western blot detects proteins with antibodies after separation by electrophoresis.)

The test system of data set [2] is wild type (WT) C57B1/6 mouse eyes. The data set can be described thus: Intraocular pressure (IOP) study. The data set is classed as in vivo. The settings on record: one hour post ip injection. The procedure:
A mouse was anesthetized via intraperitoneal (ip) injection of room temperature ketamine/xylazine. Anesthesia was assessed by pinching back. The anesthetized mouse was placed on a platform. The anterior chamber was cannulated using a 33-gauge stainless steel needle. The needle was inserted anterior to the limbus and through the cornea. The cannula was connected to a pressure transducer using teflon tubing and was calibrated to a water height equivalent of 0 mm Hg. The transducer signal was amplified, converted to a digital signal, and the voltage was recorded using LabScribe3 software. IOP was calculated by comparing the change in voltage to a standard calibration curve generated at the end of each experiment using the water height column.

Data set [3] deals with fertility of male mice. The data set can be described thus: Timed mating of inhibitor-injected male mice. The data set is classed as in vivo, mouse. The settings on record: for Contraceptive efficacy: compared to vehicle-injected control. The protocol:
Single-housed naïve (i.e., uninjected and virgin) male and female C57B1/6 mice were acclimatized to reverse light cycle (dark: 11 am to 11 pm) for at least two weeks. […] Pregnancy and litter size were assessed in two ways. Either females were sacrificed 7 days following mating and implanted embryos counted, or females were permitted to go to term (21 days) and pups counted. A subset of the pups (both male and female) born from breakthrough pregnancies were permitted to mature and their fertility assessed in standard matings.

In data set [4] the test system is epididymal mouse sperm. The data set is described as follows: Ex vivo cAMP in epididymal sperm from injected mice. The settings on record: 50 mg/kg i.p.; for bicarbonate-induced cAMP increase ex vivo: sperm isolated one hour after injection, minimally diluted. The protocol: Sperm (50 μl) isolated at indicated time points (between 1 hour and 24 hours post-injection) were incubated in […] (1:20 dilution) or 450 μl (1:200 dilution) non-capacitating or capacitating TYH media for 12 minutes. Intracellular cAMP levels were quantified using the Direct cAMP ELISA (Enzo) as above.

The test system of data set [5] is mouse sperm. The data set is described as follows: Acrosome reaction assay. The data set is classed as cell-based. The settings on record: 5 μM Example 1 or 10 nM Example 133; capacitating media 90 minutes. The procedure:
Zonae pellucidae were isolated from female mice superovulated by intraperitoneal injection of 10 I.U. […] 3 days before the experiment. 14 hours before oocyte isolation, mice were injected with 10 I.U. […]. Oviducts were collected following cervical dislocation. Cumulus-enclosed oocytes were separated from the oviducts and placed into TYH buffer containing 300 μg/ml hyaluronidase. After 15 minutes, cumulus-free oocytes were transferred into fresh buffer and washed twice. Zonae pellucidae and oocytes were separated by shear forces generated by expulsion from […] pasteur pipettes. Zona pellucidae were counted, transferred into fresh buffer and heat-solubilized by incubation for 10 minutes at 65° C.
For analysis of acrosomal exocytosis, 100 μl of 1×10^7 sperm/ml were capacitated for 90 minutes in TYH buffer supplemented with 3 mg/ml BSA and 25 mM NaHCO3 (mouse sperm) or HTF buffer supplemented with […] HSA and 25 mM NaHCO3 (human sperm). sAC inhibitors were added with capacitating buffer; 0.1% DMSO was used as vehicle control. […] After curing, slides were analyzed using a Zeiss LSM 880 Laser Scanning Confocal Microscope; images were captured with two photomultiplier and one Gallium Arsenide Phosphide detector using ZEN Imaging software. For each condition, at least 600 cells were analyzed using ImageJ 1.52.

[6] abbreviates: swim out sperm minimally diluted.
Setting [7] is: 50 mg/kg i.p. to males, mating time 8 hours.
Where [8] appears, read: 50 mg/kg i.p. to males, mating time 5 hours.
The mark [9] stands for this setting: 50 mg/kg i.p. to males, mating time 11 hours.
Where [10] appears, read: 50 mg/kg i.p., mating 4 days, 1 week post-injection (recovery of fertility).

Where “and” joins values, the source holds several entries; their conditions need not be identical. Equal entries are not always repeated.

`Cc1c(Cc2ccccc2)c(-c2cc(Cl)nc(N)n2)nn1C` [Example 1, 4-(4-benzyl-1,5-dimethyl-pyrazol-3-yl)-6-chloro-pyrimidin-2-amine]: the “capacitation-induced tyrosine phosphorylation (pY) pattern ex vivo” value in data set [1] (diluted 25 fold) is “restored”. In addition, the “capacitation-induced tyrosine phosphorylation (pY) pattern ex vivo” value in data set [1] (setting [6]) is recorded as “blocked”. Further, the “intraocular pressure (IOP)” value in data set [2] is reported as “dose dependently elevates IOP”. For the same compound, in data set [3] (setting [7]), the “Pregnancy pairings (pregnancies per total pairings)” value is recorded as “(14/45)”, the Pregnancy rate is reported as 31.1% and the Contraceptive efficacy is 25%. Also, in data set [4] (sperm diluted 1:200 ex vivo), the “bicarbonate-responsive cAMP synthesis ex vivo” value was “restored”. For the same compound, the “bicarbonate-induced cAMP increase ex vivo” value in data set [4] is on record as “absent”.

On to `Nc1nc(Cl)cc(-c2nn(C(F)F)cc2Cc2ccccc2OCCN2CCOC[C@H]2CO)n1` [Example 133], for which the “blocking acrosome reaction induced by zona pellucidae” value in data set [5] was “more potent than Example 1”. Further, the “capacitation-induced tyrosine phosphorylation (pY) pattern ex vivo” value in data set [1] (diluted 100 fold) is given as “remained blocked”; in data set [1] (setting [6]) it was “blocked”. Further, the “mouse behavior, movements and mating behaviors” value in data set [3] (50 mg/kg i.p.) was “did not adversely affect mouse behavior”. Also, the “Pregnancy pairings (pregnancies per total pairings)” value in data set [3] (setting [8]) is reported as “(3/92)”; in data set [3] (setting [7]), “(3/40)”; in data set [3] (setting [9]), “(7/45)”; in data set [3] (setting [10]) it was “(13/14)”. Also, the Pregnancy rate is 3.3% and 3.2% in data set [3] (setting [8]); 7.2% and 7.5% in data set [3] (setting [7]); 16% and 15.6% in data set [3] (setting [9]); 93% and 92.9% in data set [3] (setting [10]). Also, the Contraceptive efficacy in data set [3] (setting [8]) was 90%; in data set [3] (setting [7]), 82%; in data set [3] (setting [9]) it was 65%. Also, the “cAMP responsiveness ex vivo following dilution” value in data set [4] (9 hours post-injection, diluted 1:200) is “partially recovered”. In data set [4] (sperm isolated 1 hour or 4.5 hours post-injection, diluted 1:200), the “cAMP response ex vivo following dilution” value was “remained inhibited”. Also, the “bicarbonate-induced cAMP increase ex vivo” value in data set [4] was “absent”.

(Values after patent US20240239774A1, “SOLUBLE ADENYLYL CYCLASE (SAC) INHIBITORS AND USES THEREOF” (Cornell University, priority 2021, published 2024).)
